Reference: patent US20250049757A1, “COMBINATORY THERAPY FOR CANCER USING BIPHENYL COMPOUND AND IMMUNE CHECKPOINT MOLECULE REGULATOR” (Taiho Pharmaceutical Co. Ltd., priority 2021, published 2025)

How the values were obtained:
Assay type in all cases: in vivo
[1] = test system: mouse colon cancer cell strain MC38; test: Flow cytometric analysis of tumor infiltrating leucocytes in MC38 transplanted mice (Example 1); settings: Day 7, tumor infiltrating leucocytes, Compound A 25 mg/kg/day po 6 days, Dunnett test
Experimental: The mouse colon cancer cell strain MC38 was obtained from Dr. Yoshihiro Hayakawa (University of Toyama, Toyama, Japan). The MC38 cell strain was subjected to culture in an RPMI 1640 medium containing 10% fetal bovine serum and then to subculture in an incubator at 37° C. in the presence of 5% CO2 at a frequency of once or twice a week.
The MC38 cell suspension was transplanted subcutaneously at 1.5×10^6 cells/0.1 ml to the right chest of 6-week-old C57BL/6JJcl mice (CLEA Japan, Inc.).
The tumor was grown until reaching a tumor volume (TV) of 80 to 230 mm^3 after the transplantation. Degimatic Caliper was used for tumor diameter measurement. The major diameter and the minor diameter of the tumor were measured, and TV was calculated from the following equation.
(§1) TV (mm^3)=major diameter (mm)×minor diameter (mm)×minor diameter (mm)/2
By a stratified random allocation method using TV as an index, 5 animals were allocated to each group. The day when grouping (n=5) was performed was defined as Day 0. […]
For detecting expression of immunity-related factors, flow cytometric analysis was performed for immunological monitoring. […] Thereafter, the isolated lymphocytes were stained with antibodies below, and then, analyzed using Flow Cytometer FACSVerse (BD Bioscience). […]

[2] = test system: mouse colon cancer cell line MC38; test: Antitumor effect in MC38 transplanted wild type (immune proficient) C57BL/6JJcl mice (Example 2)
Experimental: (§2) The MC38 cell suspension was transplanted subcutaneously at 2.0×10^6 cells/0.1 ml to the right chest of 6-week-old C57BL/6JJcl mice (CLEA Japan, Inc.) or CB17/Icr-Prkdc[scid]/CrlCrlj (Charles River Laboratories Japan Inc.). CB17/Icr-Prkdc[scid]/CrlCrlj mice are mice with immune deficiency due to lack of Tcells and B-cells in the peripheral blood.
(§3) The tumor was grown until reaching a TV of 50 to 300 mm^3 after the transplantation. Degimatic Caliper was used for tumor diameter measurement. The major diameter and the minor diameter of the tumor were measured, and TV was calculated from the following equation.
as §1
(§4) By a stratified random allocation method using TV as an index, ten C57BL/6JJcl mice were allocated to each group, and five CB17/Icr-Prkdc [scid]/CrlCrlj mice were allocated to each group. The day when grouping was performed was defined as Day 0. An electronic balance for animals was used for body weight measurement. The body weight change ratio on the nth day (BWCn) was calculated from the body weight on the nth day (BWn) in accordance with the following equation.
(§5) Body weight change ratio BWCn (%)=(BWn−BW0)/BW0×100
(§6) An appropriate amount of water for injection described in the Japanese Pharmacopeia was added for adjusting hypromellose concentration to 0.5 w/v %, and the mixture was then stirred with a stirrer to completely dissolve hypromellose, to prepare a 0.5% aqueous hypromellose solution. Benzoic acid salt of Compound A was ground with an agate mortar, and then suspended to a predetermined concentration with the 0.5% aqueous hypromellose solution, and ultrasonic treatment was performed to obtain a homogeneous suspension. The suspension containing Compound A was orally administered once a day for 21 consecutive days at a dose of 25 mg/kg/day. The dosage is indicated based on the free form of the Compound A.

[3] = test system: mouse colon cancer cell line MC38; test: Antitumor effect in MC38 transplanted immune deficient CB17/Icr-Prkdc[scid]/CrlCrlj mice (Example 2)
Experimental: as §2, §3, §1, §4, §5, §6

[4] = test system: mouse colon cancer cell line MC38; test: Combination of Compound A and anti-mouse PD-1 antibody in MC38 transplanted wild type C57BL/6JJcl mice (Example 3); settings: Aspin-Welch's t-test
Experimental: The MC38 cell suspension was transplanted subcutaneously at 2.0×10^6 cells/0.1 ml to the right chest of 6-week-old C57BL/6JJcl mice (CLEA Japan, Inc.).
as §3, §1
By a stratified random allocation method using TV as an index, 10 mice were allocated to each group. The day when grouping was performed was defined as Day 0.
An electronic balance for animals was used for body weight measurement. The body weight change ratio on the nth day (BWCn) was calculated from the body weight on the nth day (BWn) in accordance with the following equation.
as §5
An appropriate amount of water for injection described in the Japanese Pharmacopeia was added for adjusting hypromellose concentration to 0.5 w/v %, and the mixture was then stirred with a stirrer to completely dissolve hypromellose, to prepare a 0.5% aqueous hypromellose solution.
On the first day of administration (day 1), the diluted product was intraperitoneally administered with the dose of 0.05 mg/body of the anti-mouse PD-1 antibody.

[5] = wild type C57BL/6JJcl mice, 25.0 mg/kg/day qd Day 1-21 po
[6] = immune deficient CB17/Icr-Prkdc[scid]/CrlCrlj mice, 25.0 mg/kg/day qd Day 1-21 po

CC(C)(O)Cc1ccc(-c2ccc(C(=O)N3CC[C@H](N)C3)cc2-c2ccc(C#N)c(F)c2)c(F)c1 [Compound A, 4-[5-[(3S)-3-aminopyrrolidine-1-carbonyl]-2-[2-fluoro-4-(2-hydroxy-2-methyl-propyl)phenyl]phenyl]-2-fluoro-benzonitrile]
ratio of gMDSC (CD45 positive, CD90.2 negative, CD11b positive, Ly6G positive cells) in leucocytes as compared to the control group [1]: significantly lower | Body weight change Day 22 Mean ± SE [2, 5]: 2.6 ± 1.2% | Tumor volume Day 22 Mean ± SE [2, 5]: 969.3 ± 114.7 mm^3 | antitumor effect: TV on Day 22 as compared to the control group ([2]; wild type mice, Aspin-Welch's t-test): significantly lower TV | Body weight change Day 22 Mean ± SE [3, 6]: 9.2 ± 4.2% | Tumor volume Day 22 Mean ± SE [3, 6]: 2431.6 ± 359.7 mm^3 | antitumor effect: TV on Day 22 as compared to the control group ([3]; immune deficient mice, Aspin-Welch's t-test): didn't exhibit any antitumor effect | antitumor effect: TV on Day 22 as compared to the control group [4]: significantly lower TV
